From patent publication US10189795B2, “Aryl amine substituted quinoxaline used as anticancer drugs” (priority 2014, dated 2019)

Tests used:
H358 = experiment: cell viability of H358 cells, 1 and 10 uM; format: cell-based; details: Homo sapiens, NCI-H358
Description: [Worded in the source for another cell line; this cell line is reported under the same test.] (§1) Sorafenib (Nexavar), erlotinib (Tarceva) and Paclitaxel were kindly provided by Bayer Pharmaceuticals (Pittsburgh, Pa., USA) and Roche Pharmaceuticals (Basel, Switzerland) respectively. Okadaic acid (OA) was purchased from Cayman Chemical (Ann Arbor, Mich., USA) and z-VAD-fmk was obtained from Sigma (St. Louis, Mo., USA). For in vitro studies, drugs at various concentrations were dissolved in dimethyl sulfoxide (DMSO), and added to cells in Dulbecco's modified Eagle's medium (DMEM) or Roswell Park Memorial Institute (RPMI) containing 5% fetal bovine serum (FBS).
(§2) The Sk-Hep1, PLC/PRF/5 (PLC) and Hep3B cell lines were obtained from American Type Culture Collection (ATCC; Manassas, Va., USA). The Huh-7 HCC cell line was obtained from the Health Science Research Resources Bank (HSRRB; Osaka, Japan; JCRB0403). Cells were maintained in DMEM supplemented with 10% FBS in a 37° C. humidified incubator in an atmosphere of 5% CO^2 in air.

H520 = experiment: cell viability of H520 cells, 1 and 10 uM; format: cell-based; details: Homo sapiens, NCI-H520
Description: [Worded in the source for another cell line; this cell line is reported under the same test.] as §1, §2

NCI-H226 = experiment: cell viability of NCI-H226 cells, 1 and 10 uM; format: cell-based; details: Homo sapiens
Description: [Worded in the source for another cell line; this cell line is reported under the same test.] as §1, §2

SET-PP2Ac binding = target: T1, SET-PP2Ac binding (Homo sapiens, UniProt Q01105); experiment: disruption of SET-PP2Ac binding (surface plasmon resonance, co-IP)
T1 construct: His; purchased Genway (SET-His); Abnova (PP2Ac-GST) GWB-ATG319; H00005515
Description: Binding affinities of full-length SET and truncated SET to PP2Ac and the effect of the erlotinib derivatives of the present invention on disrupting SET and PP2Ac were analyzed. PP2Ac-GST recombinant protein was bound in the CMS chip pre-coated with GST-capture antibodies. Sensorgrams were generated by injecting several concentrations of the erlotinib derivatives of the present invention mixed with fixed-concentration of SET recombinant protein, or the mixture of different concentration of truncated SET proteins in a fixed-dose EMQA. PP2Ac-GST recombinant protein used for this experiment was purchased from Abnova (H00005515) and SET-His recombinant protein was obtained from Genway (GWB-ATG319).
EMQA reactivates PP2A by disrupting the binding of SET-PP2Ac. To validate the role of SET, the present invention generated Hep3B cells with ectopic expression of myc-tagged SET by transient transfection. […] With a fixed amount of PP2Ac coated on the CM chip, the present invention tested the effects of a fixed-dose of EMQA on interfering different proportions of full-length and truncated forms of SET proteins in SPR system. […] To validate the findings of this ex vivo system, the present invention generated cells with ectopic overexpression of these two truncated forms of Flag-tagged SET proteins by transient transfections.

H2170 = experiment: cell viability of H2170 cells, 1 and 10 uM; format: cell-based; details: Homo sapiens, NCI-H2170
Description: [Worded in the source for another cell line; this cell line is reported under the same test.] as §1, §2

SW900 = experiment: cell viability of SW900 cells, 1 and 10 uM; format: cell-based; details: Homo sapiens
Description: [Worded in the source for another cell line; this cell line is reported under the same test.] as §1, §2

NCI-1703 = experiment: cell viability of NCI-1703 cells, 1 and 10 uM of each erlotinib derivative, and IC50; format: cell-based; details: Homo sapiens; for IC50: cell viability
Description: [Worded in the source for another cell line; this cell line is reported under the same test.] as §1, §2

A549 = experiment: cell viability of A549 cells, 1 and 10 uM; format: cell-based; details: Homo sapiens
Description: [Worded in the source for another cell line; this cell line is reported under the same test.] as §1, §2

PP2A = PP2A phosphatase activity (malachite green-phosphate assay in cell lysate); format: cell-based
Description: The protein phosphatase activity in each cell lysate was determined by measuring the generation of free phosphate from threonine phosphopeptide using the malachite green-phosphate complex assay as described by the manufacturer (Upstate Biotechnology, Lake Placid, N.Y., USA). In brief, HCC cell lysates were first prepared in a low-detergent lysis buffer. […] After incubation for 10 min at 30° C., the malachite dye was added and free phosphate was measured by optical density at 650 nm. In order to avoid variation resulting from differences in the amount of immunoprecipitation protein between samples, the phosphatase activities were normalized to the amounts of PP2A immunoprecipitated, which were detected and quantified by immunoblot analysis for each treatment group.

T1 sequence (Q01105 1-277 isoform Q01105-2): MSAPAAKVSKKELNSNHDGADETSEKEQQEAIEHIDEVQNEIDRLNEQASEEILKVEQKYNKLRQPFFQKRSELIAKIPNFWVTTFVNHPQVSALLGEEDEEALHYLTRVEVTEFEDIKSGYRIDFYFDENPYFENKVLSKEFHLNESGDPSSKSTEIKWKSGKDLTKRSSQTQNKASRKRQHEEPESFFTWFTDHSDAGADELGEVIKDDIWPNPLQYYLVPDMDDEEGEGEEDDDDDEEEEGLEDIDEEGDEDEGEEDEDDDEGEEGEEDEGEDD

Row | Structure (SMILES) | viability at 1 µM (H358) | viability at 10 µM (H358) | viability at 1 µM (H520) | viability at 10 µM (H520) | viability at 1 µM (NCI-H226) | viability at 10 µM (NCI-H226) | minimal concentration to disrupt SET-PP2Ac binding (SET-PP2Ac binding) | viability at 1 µM (H2170) | viability at 10 µM (H2170) | viability at 1 µM (SW900) | viability at 10 µM (SW900) | viability at 1 µM (NCI-1703) | viability at 10 µM (NCI-1703) | viability at 1 µM (A549) | viability at 10 µM (A549) | minimal concentration for PP2A activation (PP2A) | IC50 (NCI-1703)
1 | Clc1cc(Cl)cc(Nc2nc3ccccc3nc2Cl)c1 [TD78, 3-chloro-N-(3,5-dichlorophenyl)quinoxalin-2-amine] | 98.7 ± 4.6% | 90.8 ± 7.4% | 108.5 ± 0.14% | 108 ± 2.23% | 118 ± 2.2% | 111 ± 12.9% | 100 to 200 nM | 111 ± 1.69% | 93.09 ± 0.66% | 102 ± 6.69% | 84.1 ± 1.12% | 70.6 ± 8.2% | 73.2 ± 14.1% | 77.6 ± 5.8% | 94.7 ± 11.3% | >200 nM | 
2 | C#Cc1cccc(Nc2nc3cc([N+](=O)[O-])ccc3nc2Nc2ccc(OC)cc2)c1 [TD605, N^3-(3-ethynylphenyl)-N^2-(4-methoxyphenyl)-6-nitroquinoxaline-2,3-diamine] | 101 ± 13.6% | 113 ± 12% | 89.1 ± 6.09% | 0.78 ± 0.39% | 53.1 ± 1.9% | 5.5 ± 0.2% | 100 to 200 nM | 108 ± 3.88% | 5.53 ± 0.81% | 87.1 ± 27.2% | 2.21 ± 1.34% | 20.8 ± 0.4% | 13.8 ± 0.2% | 83.7 ± 7% | 113 ± 18.3% | 100 to 200 nM | 0.5 µM
3 | O=[N+]([O-])c1ccc2nc(Nc3cccc(Br)c3)c(Nc3cccc(Br)c3)nc2c1 [TD618, N^2,N^3-bis(3-bromophenyl)-6-nitroquinoxaline-2,3-diamine] | 36.6 ± 1.6% | 20.4 ± 3.5% |  |  | 49.6 ± 9.4% | 16.7 ± 1.1% | >200 nM |  |  |  |  | 48.3 ± 4.8% | 31.9 ± 5% | 53.2 ± 6.3% | 26.9 ± 7% | >200 nM | 
4 | c1ccc(Nc2nc3ccccc3nc2Nc2ccccc2)cc1 [TD55, N^2,N^3-diphenylquinoxaline-2,3-diamine] | 110 ± 14.2% | 42.1 ± 0.6% | 89.9 ± 1.02% | 59.2 ± 15.8% | 106 ± 17.3% | 96.4 ± 7.4% |  | 102.7 ± 0.73% | 94.8 ± 6.05% | 100 ± 6.69% | 88.3 ± 1.29% | 64.2 ± 5.3% | 49.9 ± 4.8% | 100 ± 7.2% | 36.5 ± 5.9% |  | 8.3 µM
5 | FC(F)(F)c1cc(Nc2nc3ccccc3nc2Cl)ccc1Cl [TD79, 3-chloro-N-(4-chloro-3-(trifluoromethyl)phenyl)quinoxalin-2-amine] | 114 ± 2.4% | 87.7 ± 1.8% | 96.6 ± 5.57% | 99 ± 6.01% | 131 ± 14.3% | 125 ± 10.5% |  | 98.5 ± 1.56% | 102 ± 5.66% | 98.9 ± 3.79% | 88.2 ± 19.9% | 123.7 ± 0.9% | 64.8 ± 4.5% | 96.5 ± 4.4% | 71.6 ± 10.1% |  | 
6 | c1ccc(Oc2ccc(Nc3nc4ccccc4nc3Nc3ccc(Oc4ccccc4)cc3)cc2)cc1 [TD53, N^2,N^3-bis(4-phenoxyphenyl)quinoxaline-2,3-diamine] | 120 ± 9.2% | 41.9 ± 3.9% | 101.7 ± 0.34% | 10.6 ± 0.58% | 86.2 ± 5.7% | 56.8 ± 2.7% |  | 99.7 ± 6% | 59.2 ± 1.25% | 121 ± 9.01% |  | 68.4 ± 1.4% | 46.7 ± 0.2% | 99.4 ± 6.9% | 82.7 ± 99.9% |  | 7.4 µM
